These are literature values, as cited in patent publication US20250017894A1, “Formulation for Nasal Delivery of Cannabinoids” (priority 2019, published 2025).

Turning to `C=C(C)[C@@H]1CCC(C)=C[C@H]1c1c(O)cc(CCCCC)cc1O` [CBD, Cannabidiol], the “bioavailability, inhalation using vaporized CBD” value (inhalation of vaporized CBD) was 26-36%. Also, the “bioavailability for intranasal administration” value (intranasal administration) is recorded as 34-46%. The oral bioavailability (oral administration) is 6-15%. The “bioavailability, sublingual administration” value (sublingual administration) is 20-35%.
